Data reported in patent US12540118B2, “Dendrene amide compound, bactericide and use thereof” (Jiangsu Flag Chemical Industry Co., Ltd., priority 2020, dated 2026).
Like-named read-outs stand apart in the source and are kept apart here.

How the values were obtained:
[1] = tested on: Fusarium fujikura; assay: Protective activity against rice bakanae disease; assay type: in vivo; conditions: 5 μg/mL, solvent DMSO
Description: (§1) Test of protective activity and therapeutic activity of Compound 1 against rice bakanae disease.
(§2) The test and investigation method refers to SOP-SC-1112 rice bakanae disease potting method in disinfectant rolls written by KANGZHUO and GUBAOGEN in “Standard operation specification for testing biological activity of pesticides”.
(§3) The phenamacril is a mainstream medicament for preventing and treating the rice bakanae disease at present, resistant strains are more and more along with long-time use, and […] strains showing sensitivity and one strain showing resistance to the […] are selected as test strains.
(§4) Four Fusarium fujikura SX18-32, SX18-50, SX18-59 and SX18-63 are selected for testing strains, and the current mainstream commercial bactericide phenamacril is selected as a positive control. Wherein SX18-32, SX18-50 and SX18-59 show sensitivity to phenamacril and SX18-63 show resistance to phenamacril.

[2] = tested on: Erysiphe graminis; assay: Erysiphe graminis potting method; assay type: in vivo; conditions: Blumeria graminis; 100 mg/L; read-out: Erysiphe graminis control rating
Procedure: The fungicidal activity of the control agents and target compounds are determined. The test and investigation method refers to SOP-SC-1116 Erysiphe graminis potting method in disinfectant rolls written by KANGZHUO and GUBAOGEN in “Standard operation specification for testing biological activity of pesticides”.

[3] = biological target: T1, succinate dehydrogenase (Sus scrofa, UniProt A5GZW8+D0VWV4+Q007T0); assay: Enzyme activity assay, succinate dehydrogenase (DCIP reduction); assay type: biochemical, porcine; conditions: read-out: Inhibitors (10 μM, SQR)
T1 construct: isolated from porcine hearts; from tissue; host or cells: porcine heart
Procedure, shortened: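 Porcine heart succinate dehydrogenase (2 nM) in 100 mM sodium phosphate pH 7.4, 0.3 mM EDTA, 20 mM sodium succinate and 53 μM DCIP at 23° C with stirring. DCIP reduction followed at 600 nm (ε 21 mM^−1 cm^−1); linear slope minus baseline gives initial rate.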

[4] = tested on: Sclerotinia sclerotiorum; assay: Mycelial growth rate method; assay type: cell-based
[5] = tested on: Alternaria alternata; assay: Mycelial growth rate method; assay type: cell-based
[6] = tested on: Corn big spot; assay: Mycelial growth rate method; assay type: cell-based
[7] = tested on: Fusarium wilt of water melon; assay: Mycelial growth rate method; assay type: cell-based
[8] = tested on: Rhizoctonia cerealis; assay: Mycelial growth rate method; assay type: cell-based
[9] = tested on: Gibberella zeae; assay type: cell-based
[10] = tested on: Phytophthora capsici; assay: Mycelial growth rate method; assay type: cell-based
[11] = tested on: Fusarium fujikura; assay: Therapeutic activity against rice bakanae disease; assay type: in vivo; conditions: 5 μg/mL, solvent DMSO
Description: as §1, §2, §3, §4

[12] = tested on: Phytophthora infestans; assay type: cell-based
[13] = tested on: Sphaerotheca fuliginea; assay: Sphaerotheca fuliginea potting method; assay type: in vivo; conditions: Podosphaera fuliginea; 100 mg/L; read-out: Sphaerotheca fuliginea control rating
Procedure: The fungicidal activity of the control agents and target compounds are determined. The test and investigation method refers to SOP-SC-1101 sphaerotheca fuliginea potting method in disinfectant rolls written by KANGZHUO and GUBAOGEN in “Standard operation specification for testing biological activity of pesticides”.

[14] = tested on: Sphaerotheca fuliginea; assay: Field test of sphaerotheca fuliginea; assay type: in vivo
Procedure: The test is carried out according to GB/T17980.30-2000 of pesticide field efficacy test guidelines. The survey method is to randomly take four points for each cell and survey all leaves of 2 plants per point. And investigating the sphaerotheca fuliginea incidence before the first application, and investigating the sphaerotheca fuliginea incidence 7 and 14 days after the second application respectively, and calculating the disease index and the controlling effect.

[15] = tested on: Alternaria solani; assay: Mycelial growth rate method; assay type: cell-based
[16] = strain SX18-59 (S), listed as compound 1
[17] = strain SX18-63 (R), listed as compound 1

T1 sequence (Q0QF01 43-664 partner): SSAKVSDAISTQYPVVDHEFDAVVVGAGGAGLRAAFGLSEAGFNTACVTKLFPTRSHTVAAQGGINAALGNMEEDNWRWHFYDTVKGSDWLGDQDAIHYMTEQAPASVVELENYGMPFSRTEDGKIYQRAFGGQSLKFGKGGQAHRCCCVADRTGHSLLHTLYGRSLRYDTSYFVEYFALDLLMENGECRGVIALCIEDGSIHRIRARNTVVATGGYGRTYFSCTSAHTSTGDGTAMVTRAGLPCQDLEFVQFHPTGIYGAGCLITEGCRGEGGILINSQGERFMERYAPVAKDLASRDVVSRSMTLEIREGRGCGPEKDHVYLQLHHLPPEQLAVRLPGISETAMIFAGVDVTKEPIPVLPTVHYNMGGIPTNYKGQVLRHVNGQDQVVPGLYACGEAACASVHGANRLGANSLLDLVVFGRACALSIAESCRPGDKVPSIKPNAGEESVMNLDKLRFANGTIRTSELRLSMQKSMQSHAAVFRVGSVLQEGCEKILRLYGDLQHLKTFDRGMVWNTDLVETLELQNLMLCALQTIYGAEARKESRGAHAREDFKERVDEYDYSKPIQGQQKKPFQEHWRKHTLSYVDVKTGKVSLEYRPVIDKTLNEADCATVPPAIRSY
T1 sequence (Q007T0 29-280): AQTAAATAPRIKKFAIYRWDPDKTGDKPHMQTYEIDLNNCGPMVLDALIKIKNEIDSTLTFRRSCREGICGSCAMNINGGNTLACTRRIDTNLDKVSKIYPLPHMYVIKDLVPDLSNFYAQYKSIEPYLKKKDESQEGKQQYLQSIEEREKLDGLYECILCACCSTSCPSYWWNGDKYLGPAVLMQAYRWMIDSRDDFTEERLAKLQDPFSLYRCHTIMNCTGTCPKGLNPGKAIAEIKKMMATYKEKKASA
T1 sequence (D0VWV4 30-169): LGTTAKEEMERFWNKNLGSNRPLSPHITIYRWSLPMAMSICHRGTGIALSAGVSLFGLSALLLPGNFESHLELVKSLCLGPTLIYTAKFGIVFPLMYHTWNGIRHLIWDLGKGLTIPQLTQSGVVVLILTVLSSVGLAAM
T1 sequence (A5GZW8 57-159 limits assumed): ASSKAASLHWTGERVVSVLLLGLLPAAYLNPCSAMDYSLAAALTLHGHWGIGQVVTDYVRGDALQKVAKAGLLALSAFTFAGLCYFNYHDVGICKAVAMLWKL

C=C(CN(C(=O)c1c(C(F)F)nn(C)c1F)C1CC1)c1ccc(Cl)cc1Cl [Compound 1]
Protective activity ([1]; strain SX18-32 (S)): 97.4%
Protective activity ([1]; strain SX18-32 (S), listed as compound 1): more than 90%
Protective activity ([1]; strain SX18-59 (S)): 100.0%
Protective activity [1, 16]: more than 90%
Protective activity ([1]; strain SX18-63 (R)): 93.7%
Protective activity [1, 17]: more than 90%
pest or weed control at 100 µg/mL [2]: 80 to 100%
inhibition at 10 µM [3]: > 90%
Inhibition ratio (%) Sclerotinia sclerotiorum ([4]; 1.5625 μg/mL): C (C <70%)
Inhibition ratio (%) Sclerotinia sclerotiorum ([4]; 6.25 μg/mL): A (80% ≤ A ≤ 100%)
Inhibition ratio (%) Sclerotinia sclerotiorum ([4]; 25 μg/mL): A (80% ≤ A ≤ 100%)
Inhibition ratio (%) Alternaria alternata ([5]; 1.5625 μg/mL): A (80% ≤ A ≤ 100%)
Inhibition ratio (%) Alternaria alternata ([5]; 6.25 μg/mL): A (80% ≤ A ≤ 100%)
Inhibition ratio (%) Alternaria alternata ([5]; 25 μg/mL): A (80% ≤ A ≤ 100%)
Inhibition ratio (%) Corn big spot ([6]; 1.5625 μg/mL): A (80% ≤ A ≤ 100%)
Inhibition ratio (%) Corn big spot ([6]; 6.25 μg/mL): A (80% ≤ A ≤ 100%)
Inhibition ratio (%) Corn big spot ([6]; 25 μg/mL): A (80% ≤ A ≤ 100%)
Inhibition ratio (%) Fusarium wilt of water melon ([7]; 1.5625 μg/mL): A (80% ≤ A ≤ 100%)
Inhibition ratio (%) Fusarium wilt of water melon ([7]; 6.25 μg/mL): A (80% ≤ A ≤ 100%)
Inhibition ratio (%) Fusarium wilt of water melon ([7]; 25 μg/mL): A (80% ≤ A ≤ 100%)
Inhibition ratio (%) Rhizoctonia cerealis ([8]; 1.5625 μg/mL): C (C <70%)
Inhibition ratio (%) Rhizoctonia cerealis ([8]; 6.25 μg/mL): B (70% ≤ B < 80%)
Inhibition ratio (%) Rhizoctonia cerealis ([8]; 25 μg/mL): A (80% ≤ A ≤ 100%)
Inhibition ratio (%) Gibberella zeae ([9]; 1.5625 μg/mL): A (80% ≤ A ≤ 100%)
Inhibition ratio (%) Gibberella zeae ([9]; 6.25 μg/mL): A (80% ≤ A ≤ 100%)
Inhibition ratio (%) Gibberella zeae ([9]; 25 μg/mL): A (80% ≤ A ≤ 100%)
Inhibition ratio (%) Phytophthora capsici ([10]; 1.5625 μg/mL): B (70% ≤ B < 80%)
Inhibition ratio (%) Phytophthora capsici ([10]; 6.25 μg/mL): A (80% ≤ A ≤ 100%)
Inhibition ratio (%) Phytophthora capsici ([10]; 25 μg/mL): A (80% ≤ A ≤ 100%)
Therapeutic activity ([11]; strain SX18-32 (S)): 60.2%
Therapeutic activity ([11]; strain SX18-59 (S)): 96.8%
Therapeutic activity [11, 16]: 96.8%
Therapeutic activity ([11]; strain SX18-63 (R)): 83.3%
Therapeutic activity [11, 17]: far better therapeutic effect
Inhibition ratio (%) Phytophthora infestans ([12]; 1.5625 μg/mL): A (80% ≤ A ≤ 100%)
Inhibition ratio (%) Phytophthora infestans ([12]; 6.25 μg/mL): A (80% ≤ A ≤ 100%)
Inhibition ratio (%) Phytophthora infestans ([12]; 25 μg/mL): A (80% ≤ A ≤ 100%)
pest or weed control at 100 µg/mL [13]: 80 to 100%
Controlling effect % ([14]; 50 mg/L): 82%
Controlling effect % ([14]; 50 mg/L, listed as compound 1): more than 80%
Controlling effect % ([14]; 100 mg/L): 88%
Controlling effect % ([14]; 100 mg/L, listed as compound 1): the same control effect as the current mainstream insecticides
Controlling effect % ([14]; 200 mg/L): 92%
Inhibition ratio (%) Alternaria solani ([15]; 1.5625 μg/mL): A (80% ≤ A ≤ 100%)
Inhibition ratio (%) Alternaria solani ([15]; 6.25 μg/mL): A (80% ≤ A ≤ 100%)
Inhibition ratio (%) Alternaria solani ([15]; 25 μg/mL): A (80% ≤ A ≤ 100%)
